Source: DBAASP
In brackets after ≈: the same amount, converted by molar mass.

Key:
Test in all cases: ≥ marks a high value that may be exact or a test limit, other limits are often not marked, values filed in µg/mL are converted to µM
[1] = test system: Lacticaseibacillus rhamnosus 7469
[2] = test system: Escherichia coli K88
[3] = test system: Staphylococcus aureus ATCC 25923
[4] = test system: Staphylococcus aureus ATCC 29213
[5] = test system: Pseudomonas aeruginosa ATCC 27853
[6] = test system: Lacticaseibacillus rhamnosus 1.0385
[7] = test system: Salmonella enterica subsp. enterica serovar Typhimurium C77-31
[8] = test system: Lactiplantibacillus plantarum 8014
[9] = test system: Lacticaseibacillus rhamnosus 1.0936
[10] = test system: Escherichia coli ATCC 25922
[11] = test system: Salmonella enterica subsp. enterica serovar Typhimurium ATCC 14028
[12] = test system: Escherichia coli K99
[13] = test system: Lacticaseibacillus rhamnosus 1.0911
[14] = test system: Salmonella enterica subsp. enterica serovar Pullorum C79-13
[15] = test system: Escherichia coli UB1005
[16] = test system: Staphylococcus aureus ATCC 43300
[17] = test system: Escherichia coli ATCC 35218
[18] = test system: Bacillus megaterium Bm11
[19] = test system: Klebsiella pneumoniae ATCC 49472
[20] = test system: Staphylococcus epidermidis ATCC 12228
[21] = test system: Staphylococcus aureus ATCC 12600
[22] = test system: Candida parapsilosis ATCC 22019
[23] = test system: Enterococcus faecalis ATCC 51299
[24] = test system: Staphylococcus aureus ATCC BAA-2312
[25] = test system: Enterococcus faecium ATCC 19434
[26] = test system: Acinetobacter baumannii ATCC 19606
[27] = test system: Klebsiella pneumoniae ATCC BAA-2814
[28] = test system: Staphylococcus aureus VRSA1
[29] = test system: Staphylococcus aureus NRS 17
[30] = test system: Klebsiella pneumoniae ATCC BAA-2146
[31] = test system: Pseudomonas aeruginosa FADDI-PA070
[32] = test system: Staphylococcus aureus NRS 1
[33] = test system: Klebsiella pneumoniae ATCC 700603
[34] = test system: Staphylococcus aureus VRSA10
[35] = test system: Streptococcus pneumoniae ATCC 700677
[36] = test system: Escherichia coli
[37] = test system: Staphylococcus aureus ATCC BAA-1683
[38] = test system: Escherichia coli TOP 10
[39] = test system: Pseudomonas aeruginosa K799
[40] = test system: Aeromonas salmonicida
[41] = test system: Salmonella enterica subsp. enterica serovar Typhimurium ATCC 14028s
[42] = test system: Vibrio anguillarum
[43] = test system: Salmonella enterica serovar typhimurium MS7953s
[44] = test system: Staphylococcus epidermidis C621
[45] = test system: Pseudomonas aeruginosa Z61

Question: C[C@@H]1NC(=O)[C@@H](N)CSSC[C@@H](C(=O)O)NC(=O)[C@H](Cc2ccccc2)NC(=O)[C@H](Cc2ccc(O)cc2)NC(=O)[C@H](CO)NC1=O [CASYFC] was tested. Which MIC [1] did it give?
Answer: ≥ 64 µM

Question: And the MIC [2]?
Answer: ≥ 64 µM

Question: And the MIC [3]?
Answer: > 64 µM

Question: What about the MIC [4] of the same molecule?
Answer: > 64 µM

Question: And the MIC [5]?
Answer: > 64 µM

Question: What about the MIC [6] of the same molecule?
Answer: ≥ 64 µM

Question: And the MIC [7]?
Answer: ≥ 64 µM

Question: What about the MIC [8] of the same molecule?
Answer: ≥ 64 µM

Question: What about the MIC [9] of the same molecule?
Answer: ≥ 64 µM

Question: And the MIC [10]?
Answer: > 64 µM

Question: What about the MIC [11] of the same molecule?
Answer: > 64 µM

Question: And the MIC [12]?
Answer: ≥ 64 µM

Question: What about the MIC [13] of the same molecule?
Answer: ≥ 64 µM

Question: What about the MIC [14] of the same molecule?
Answer: ≥ 64 µM

Question: And the MIC [15]?
Answer: ≥ 64 µM

Question: And the MIC [16]?
Answer: > 64 µM

Question: What does the source list for CC[C@H](C)[C@H](NC(=O)CN)C(=O)N[C@@H](Cc1ccccc1)C(=O)N[C@@H](CC(=O)O)C(=O)N[C@H](C(=O)N[C@@H](CC(C)C)C(=O)N[C@@H](CCCCN)C(=O)N[C@@H](CC(N)=O)C(=O)N[C@@H](CC(C)C)C(=O)N[C@@H](C)C(=O)N[C@@H](CCCCN)C(=O)NCC(=O)N[C@H](C(=O)N[C@H](C(=O)N[C@H](C(=O)N[C@@H](CO)C(=O)N[C@@H](CC(C)C)C(=O)N[C@@H](C)C(=O)N[C@@H](CO)C(N)=O)[C@@H](C)O)[C@@H](C)CC)C(C)C)C(C)C [GIFDVLKNLAKGVITSLAS]?
Answer: MIC [17]: 31.2 µM (≈ 60.8 µg/mL); MIC [18]: 0.78 µM (≈ 1.52 µg/mL); MIC [19]: ≥ 62.5 µM; MIC [3]: 12.5 µM (≈ 24.3 µg/mL); MIC [20]: 6.25 µM (≈ 12.2 µg/mL); MIC [5]: 62.5 µM (≈ 122 µg/mL); MIC [21]: 31.2 µM (≈ 60.8 µg/mL); MIC [22]: 25 µM (≈ 48.6 µg/mL); MIC [23]: ≥ 250 µM; MIC [10]: 6.25 µM (≈ 12.2 µg/mL); MIC [24]: 31.2 µM (≈ 60.8 µg/mL); MIC [25]: ≥ 62.5 µM; MIC [11]: 62.5 µM (≈ 122 µg/mL); MIC [26]: 6.25 µM (≈ 12.2 µg/mL); MIC [27]: ≥ 62.5 µM

Question: What does the source list for CC[C@H](C)[C@H](N)C(=O)N[C@@H](CC(=O)O)C(=O)N[C@@H](Cc1c[nH]c2ccccc12)C(=O)N[C@@H](CCCCN)C(=O)N[C@@H](CCCCN)C(=O)N[C@H](C(=O)N[C@@H](CC(=O)O)C(=O)N[C@@H](Cc1c[nH]c2ccccc12)C(=O)N[C@@H](CCCCN)C(=O)N[C@@H](CCCCN)C(=O)N[C@H](C(=O)N[C@@H](CO)C(=O)N[C@@H](CCCCN)C(=O)N[C@@H](CCCCN)C(=O)N[C@H](C(=O)N[C@@H](CO)C(=O)N[C@@H](CCCCN)C(=O)N[C@H](C(=O)N[C@@H](CCSC)C(=O)N[C@@H](CC(C)C)C(=O)N[C@@H](CCCCN)C(=O)N[C@@H](C)C(=O)N[C@@H](CO)C(=O)N[C@@H](CCCCN)C(=O)N[C@@H](Cc1ccccc1)C(=O)N[C@@H](CC(C)C)C(N)=O)C(C)C)[C@@H](C)O)C(C)C)C(C)C [IDWKKVDWKKVSKKTSKVMLKASKFL]?
Answer: MIC [5]: > 12.8 µM; MIC [28]: 12.8 µM (≈ 40 µg/mL); MIC [29]: 12.8 µM (≈ 40 µg/mL); MIC [30]: 2.26 µM (≈ 7.06 µg/mL); MIC [31]: 12.8 µM (≈ 40 µg/mL); MIC [10]: 4.53 µM (≈ 14.1 µg/mL); MIC [32]: 12.8 µM (≈ 40 µg/mL); MIC [26]: 0.566 µM (≈ 1.77 µg/mL); MIC [33]: 9.05 µM (≈ 28.3 µg/mL); MIC [34]: 12.8 µM (≈ 40 µg/mL); MIC [35]: 12.8 µM (≈ 40 µg/mL); MIC [16]: > 12.8 µM

Question: For CC(C)C[C@H](NC(=O)[C@H](CC(C)C)NC(=O)[C@H](CCCN=C(N)N)NC(=O)[C@H](Cc1c[nH]c2ccccc12)NC(=O)[C@H](Cc1c[nH]c2ccccc12)NC(=O)[C@@H](N)CCCCN)C(=O)N[C@@H](Cc1cnc[nH]1)C(=O)N[C@@H](CCCCN)C(=O)N[C@@H](CCCCN)C(=O)N[C@@H](CCC(N)=O)C(N)=O [KWWRLLHKKQ], which MIC [3] is on record?
Answer: 351 µM (≈ 500 µg/mL)

Question: What about the MIC [36] of the same molecule?
Answer: 351 µM (≈ 500 µg/mL)

Question: What about the MIC [37] of the same molecule?
Answer: ≥ 351 µM

Question: How did the MIC [38] turn out when CC[C@H](C)[C@H](NC(=O)[C@H](CCC(=O)O)NC(=O)[C@H](CCCCN)NC(=O)[C@H](CCC(=O)O)NC(=O)[C@@H](NC(=O)[C@H](CO)NC(=O)[C@H](CCC(N)=O)NC(=O)[C@@H](NC(=O)[C@@H]1CCCN1C(=O)[C@H](CC(=O)O)NC(=O)[C@H](C)NC(=O)[C@H](CCSC)NC(=O)[C@@H](NC(=O)[C@H](Cc1ccccc1)NC(=O)[C@@H](N)CC(C)C)[C@@H](C)O)[C@@H](C)CC)[C@@H](C)CC)C(N)=O [LFTMADPIQSIEKEI] was run?
Answer: ≥ 57.6 µM

Question: CC[C@H](C)[C@H](NC(=O)[C@@H](N)CO)C(=O)NCC(=O)N[C@@H](CO)C(=O)N[C@@H](C)C(=O)N[C@@H](Cc1ccccc1)C(=O)N[C@@H](CCCCN)C(=O)N[C@@H](CCCCN)C(=O)N[C@@H](C)C(=O)N[C@@H](C)C(=O)N[C@@H](Cc1cnc[nH]1)C(=O)N[C@H](C(=O)NCC(=O)N[C@@H](CCCCN)C(=O)N[C@@H](Cc1cnc[nH]1)C(=O)N[C@H](C(=O)NCC(=O)N[C@@H](CCCCN)C(=O)N[C@@H](C)C(=O)N[C@@H](C)C(=O)N[C@@H](CC(C)C)C(=O)NCC(=O)N[C@@H](C)C(=O)N[C@@H](C)C(=O)N[C@@H](C)C(=O)N[C@@H](CCCN=C(N)N)C(=O)N[C@@H](CCCN=C(N)N)C(=O)N[C@@H](CCCN=C(N)N)C(=O)N[C@@H](CCCCN)C(=O)O)C(C)C)C(C)C [SIGSAFKKAAHVGKHVGKAALGAAARRRK] was tested. Which MIC [39] did it give?
Answer: 21.7 µM (≈ 64 µg/mL)

Question: What about the MIC [40] of the same molecule?
Answer: 10.9 µM (≈ 32 µg/mL)

Question: What about the MIC [41] of the same molecule?
Answer: 21.7 µM (≈ 64 µg/mL)

Question: And the MIC [42]?
Answer: 21.7 µM (≈ 64 µg/mL)

Question: What about the MIC [43] of the same molecule?
Answer: 2.72 µM (≈ 8 µg/mL)

Question: And the MIC [44]?
Answer: 21.7 µM (≈ 64 µg/mL)

Question: And the MIC [45]?
Answer: 21.7 µM (≈ 64 µg/mL)
